Data: patent US10221163B2 (priority 2015, dated 2019)
Where two headings read alike, the source gives them in different places.

Key:
[1] = system: Escherichia coli expressing NDM-1 (CLB30005, CLB30016); format: cell-based; conditions: NDM-1 strain, with imipenem 1 μg/ml, 95% inhibition of growth
In short: (§1)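 Clinical isolates (E. coli NDM-1, S. marcescens IMP-1, K. pneumoniae VIM-1) were diluted 1:100 from saline suspension into 1.1×CAMHB and exposed to test compound with imipenem at 1 μg/ml. Plates were incubated at 35° C for 22 hours to 24 hours, and growth was read by absorbance.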

[2] = system: Serratia marcescens expressing IMP-1 (CL5741); format: cell-based; conditions: IMP-1 strain CL5741, with imipenem 1 μg/ml, 95% inhibition of growth
In short: as §1

[3] = system: Klebsiella pneumoniae expressing VIM-1 (IHMA599644); format: cell-based; conditions: VIM-1 strain IHMA599644, with imipenem 1 μg/ml, 95% inhibition of growth
In short: as §1

IMP-1 = IMP-1 (Serratia marcescens, UniProt P52699); assay: biochemical; format: biochemical; conditions: fluorescence assay, CCF2-FA substrate, 2 pM enzyme, 2 hours at 25° C.; read-out: IMP-1 IC50
IMP-1, sequence (P52699 whole entry, looked up, species assumed): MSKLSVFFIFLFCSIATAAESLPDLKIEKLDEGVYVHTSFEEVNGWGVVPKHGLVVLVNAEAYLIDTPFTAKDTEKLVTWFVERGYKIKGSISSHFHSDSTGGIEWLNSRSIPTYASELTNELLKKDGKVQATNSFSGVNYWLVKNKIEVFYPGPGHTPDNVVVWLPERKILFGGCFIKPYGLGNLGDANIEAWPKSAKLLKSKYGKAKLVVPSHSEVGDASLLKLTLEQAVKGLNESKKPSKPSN
In short: (§2)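 Inhibitor was mixed with the metallo-β-lactamase and CCF2-FA. After 2 hours at 25° C, fluorescence of the coumarin–fluorescein cephalosporin substrate was read. IC50 was calculated with a 4-parameter fit.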

NDM-1 = NDM-1 (Klebsiella pneumoniae, UniProt C7C422); assay: biochemical; format: biochemical; conditions: fluorescence assay, CCF2-FA substrate, 1 pM enzyme, 2 hours at 25° C.; read-out: NDM-1 IC50
NDM-1, sequence (C7C422 whole entry, looked up, species assumed): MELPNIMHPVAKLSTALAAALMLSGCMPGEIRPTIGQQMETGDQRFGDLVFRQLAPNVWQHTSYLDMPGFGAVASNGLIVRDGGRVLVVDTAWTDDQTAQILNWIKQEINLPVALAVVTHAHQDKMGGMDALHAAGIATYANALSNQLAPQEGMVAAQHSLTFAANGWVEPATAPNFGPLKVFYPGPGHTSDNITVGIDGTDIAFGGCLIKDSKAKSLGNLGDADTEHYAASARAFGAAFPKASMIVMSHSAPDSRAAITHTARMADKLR
In short: as §2

[4] = system: Pseudomonas aeruginosa efflux− (MB9799), IMP-1; format: cell-based; conditions: efflux− MB9799; imipenem at 2 μg/mL; in the presence of a class A, C, D serine β-lactamase inhibitor closely related to relebactam
In short: (§3)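 Steps: add fixed imipenem and/or ceftazidime (usually CLSI breakpoint) and fixed AmpC-directed class A/C inhibitor to microbroth MIC wells; titrate MBL inhibitor; record concentration regaining susceptibility for each PAO1-derived strain; divide efflux+ by efflux− value.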

[5] = system: Pseudomonas aeruginosa efflux+ (MB9798), IMP-1; format: cell-based; set-up: Concentration of metallo-β-lactamase inhibitor which restores susceptibility of efflux + (MB9798) strain to imipenem: unit not given here; conditions: efflux+ MB9798; imipenem at 2 μg/mL; in the presence of a class A, C, D serine β-lactamase inhibitor closely related to relebactam
In short: as §3

VIM-1 = VIM-1 (Pseudomonas aeruginosa (strain ATCC 15692 / DSM 22644 / CIP 104116 / JCM 14847 / LMG 12228 / 1C / PRS 101 / PAO1), UniProt A0A0F7KYQ8); assay: biochemical; conditions: CCF2-FA substrate, 30 pM enzyme, 2 hours at 25° C.
In short: as §2

[6] = system: Pseudomonas aeruginosa MB9798 vs MB9799; conditions: fold difference between efflux+ (MB9798) and efflux− (MB9799) strains; imipenem at 2 μg/mL
In short: as §3

[7] = fluorescence assay, read-out: VIM-1 IC50

Row | Structure (SMILES) | Escherichia coli MITC95 [1] | Serratia marcescens MITC95 [2] | Klebsiella pneumoniae MITC95 [3] | IC50 (IMP-1) | IC50 (NDM-1) | Concentration of metallo-β-lactamase inhibitor which restores susceptibility of efflux − (MB9799) strain to imipenem [4] | Concentration of metallo-β-lactamase inhibitor which restores susceptibility of efflux + (MB9798) strain to imipenem [5] | IC50 (VIM-1; [7]) | Efflux ratio [6] | IC50 (VIM-1; VIM-1 IC50, fluorescence assay)
1 | NCCNc1ncccc1-c1ccc(S(=O)(=O)N[C@@H]2CCNC2)c(S(N)(=O)=O)c1-c1nn[nH]n1 [Example 459, (R)-4-(2-((2-Aminoethyl)amino)pyridin-3-yl)-N1-(pyrrolidin-3-yl)-3-(2H-tetrazol-5-yl)benzene-1,2-disulfonamide] | 0.3906 µM | 1.563 µM | 1.563 µM | 12.5 nM | 1.17 nM | 1.563 | 3.125 | 0.172 nM | 2.00 | 
2 | C[C@H](CN)NS(=O)(=O)c1ccc(-c2cccnc2NCCN)c(-c2nn[nH]n2)c1S(N)(=O)=O [Example 460, (R)-4-(2-((2-aminoethyl)amino)pyridin-3 yl)-N1-(1-aminopropan-2-yl)-3-(2H-tetrazol-5-yl)benzene-1,2-disulfonamide] | 0.7813 µM | 1.563 µM | 1.563 µM | 4.63 nM | 0.603 nM | 1.563 | 3.125 | 0.148 nM | 2.00 | 
3 | NCCNS(=O)(=O)c1ccc(-c2ccnc(CN)c2)c(-c2nn[nH]n2)c1S(N)(=O)=O [Example 461, N1-(2-Aminoethyl)-4-(2-(aminomethyl)pyridin-4-yl)-3-(2H-tetrazol-5-yl)benzene-1,2-disulfonamide] | 1.563 µM | 3.125 µM | 6.25 µM | 50.4 nM | 42.1 nM | 3.125 | 12.5 | 4.77 nM | 4.00 | 
4 | NCc1nc(-c2cccc(-c3ccc(S(=O)(=O)N[C@H]4CNC[C@H]4N)c(S(N)(=O)=O)c3-c3nn[nH]n3)c2)c[nH]1 [Example 462] | 1.563 µM | 1.563 µM | 1.563 µM | 1.29 nM | 0.0954 nM | 0.7813 | 1.563 |  | 2.00 | 0.227 nM
5 | NCc1nc2cc(-c3ccc(S(=O)(=O)NC[C@H](O)CN)c(S(N)(=O)=O)c3-c3nn[nH]n3)ccc2s1 [Example 463, (R)—N1-(3-amino-2-hydroxypropyl)-4-(2-(aminomethyl)benzo[d]thiazol-5-yl)-3-(2H-tetrazol-5-yl)benzene-1,2-disulfonamide] | 0.7813 µM | 0.7813 µM | 1.563 µM | 0.325 nM | 0.145 nM | 0.7813 | 0.7813 | 0.091 nM | 1.00 | 
6 | NCc1nc2cc(-c3ccc(S(=O)(=O)NC[C@H](O)CN)c(S(N)(=O)=O)c3-c3nn[nH]n3)ccc2[nH]1 [Example 464, (R)—N1-(3-amino-2-hydroxypropyl)-4-(2-(aminomethyl)-1H-benzo[d]imidazole-5-yl)-3-(2H-tetrazol-5-yl)benzene-1,2-disulfonamide] | 0.7813 µM | 1.563 µM | 1.563 µM | 1.84 nM | 0.274 nM | 0.7813 | 0.7813 | 0.198 nM | 1.00 | 
